In patent US20240156767A1, “SCREENING METHOD FOR GLP-1 SECRETION REGULATION AGENT, GLP-1 SECRETION REGULATION AGENT, COMPOSITION FOR PREVENTING OR AMELIORATING DIABETES, OBESITY, POSTPRANDIAL HYPERGLYCEMIA, NEURODEGENERATIVE DISEASE, HYPOGLYCEMIA, ADIPOSITY, OR NESIDIOBLASTOSIS, METHOD FOR PROMOTING SECRETION OF GLP-1 IN …” (The Nisshin OilliO Group, Ltd., priority 2021, published 2024):

Legend:
STC-1 cells = test: Cell culture test: GLP-1 secretion from enteroendocrine STC-1 cells (ELISA); assay type: cell-based; details: for GLP-1 CONCENTRATION: 30 minutes after sample, mean±standard error; for Effect on GLP-1 secretion from STC-1 cells (in words): 0.01-1.0 mM
Procedure: By carrying out a cell culture test (in vitro test) by the following method, and administering various medium chain fatty acids (capric acid or lauric acid, both are a free form) to enteroendocrine cells (STC-1 cells), an effect of each medium chain fatty acid on GLP-1 secretion was examined. The above medium chain fatty acids correspond to GPR84 agonists. To the same dimethyl sulfoxide (1 ml) as in the (1-1) above, 172 mg of capric acid (trade name “Decanoic Acid <Capric Acid>”, manufactured by New Check Prep) was added to obtain 1000 mM of capric acid samples. A 1000 mM capric acid sample (0.1 ml) was added to dimethylsulfoxide (0.9 ml) to obtain a 100 mM capric acid sample. A 100 mM capric acid sample (0.1 ml) was added to dimethylsulfoxide (0.9 ml) to obtain a 10 mM capric acid sample. Note here that when capric acid was added to dimethylsulfoxide, a mixture was mixed while heating to prepare a sample having a uniform capric acid concentration. To the same dimethylsulfoxide (1 ml) as in the (1-1) above, 200 mg of lauric acid (trade name “Dodecanoic Acid <Lauric Acid>”, manufactured by New Check Prep) was added to obtain 1000 mM of lauric acid sample. A 1000 mM lauric acid sample (0.1 ml) was added to dimethylsulfoxide (0.9 ml) to obtain a 100 mM lauric acid sample. A 100 mM lauric acid sample (0.1 ml) was added to dimethylsulfoxide (0.9 ml) to obtain a 10 mM lauric acid sample. Note here that when lauric acid was added to dimethyl sulfoxide, the mixture was mixed while heating to prepare a sample having a uniform lauric acid concentration. STC-1 cells (trade name “STC-1”, manufactured by American Type Culture Collection) were cultured in a medium at 37° C. in 5% CO2 for 48 hours to obtain STC-1 cells for testing. Note here that as the medium, a DMEM medium (trade name “Dulbecco's Modified Eagle Medium (High Glucose)”, manufactured by Sigma-Aldrich) including 15% horse serum (trade name “Horse Serum, New Zealand origin”, manufactured by Gibco) and 5% fetal bovine serum (trade name “Fetal Bovine Serum (FBS) Standard, Origin South America”, manufactured by Cosmo Bio) was used. The culture medium for STC-1 cells was replaced with a serum-free medium (300 μl/well), starvation was carried out for 30 minutes, then the serum-free medium was replaced with a new serum-free medium (300 μl/well), and 0.3 μl each of any one of samples was added to each well. Thirty minutes after administration of the sample, the medium was collected and mixed in a 1.5 ml tube in which 3 μL of DPP4 inhibitor (trade name “DPP IV Inhibitor”, manufactured by Sigma-Aldrich) had been placed in advance. Then, each tube was centrifuged at 4° C. at 1,000×g for 5 minutes, and the supernatant was collected in a new 1.5 ml tube. GLP-1 concentration (nM) in the collected supernatant was measured. Note here that the GLP-1 concentration was measured by ELISA method using a commercially available kit (trade name “Glucagon Like Peptide-1 (Active) ELISA”, manufactured by Sigma-Aldrich). In the data of FIG. 1 and Table 1, the measured values of GLP-1 concentration are expressed as “mean±standard error”. Dunnet's test was used to test significant differences between trials, and significant differences were determined to exist when the risk rate was less than 5% (*p<0.05). Also, the sample concentrations in FIG. 1 and Table 1 indicate the concentrations in the medium in the cell culture test.

GPR84 knockout mice = test: Administration test: plasma GLP-1 concentration in GPR84 knockout mice (ELISA); assay type: in vivo; details: GPR84KO mice; 1000 mg/kg oral; 120 minutes after administration; mean±standard error
Procedure: An administration test was carried out by the following method to examine an effect of administration of various medium chain fatty acids (capric acid or lauric acid, both are a free form) to mice on plasma GLP-1 secretion. The above medium chain fatty acids correspond to GPR84 agonists. A control sample (carboxymethylcellulose), a capric acid sample, and a lauric acid sample were prepared in the same manner as in the <Test 2> above. Based on the following method, any one of a control sample, a capric acid sample, and a lauric acid sample was administered to mice in each group. In this test, two types of mice, that is, wild-type mice and GPR84 knockout mice, were prepared. As wild-type mice, 18 C57BL/6 male mice at 7- to 9-weeks old (purchased from Japan SLC, Inc.) were used. […] Plasma was prepared by a conventional method from the blood obtained before and after sample administration, and the plasma GLP-1 concentration (pM) was measured. The plasma GLP-1 concentration was measured by ELISA using a commercially available kit (trade name “Glucagon Like Peptide-1 (Active) ELIS”, manufactured by Sigma-Aldrich). The data in FIG. 3 and Table 3 are expressed as relative values (Relative GLP-1) when the average value of plasma GLP-1 concentration before administration of each sample is set to “1”, and expressed as “mean±standard error of the relative values”. […]

Row | SMILES | GLP-1 CONCENTRATION (STC-1 cells; 0.01 mM in medium) | GLP-1 CONCENTRATION (STC-1 cells; 0.1 mM in medium) | GLP-1 CONCENTRATION (STC-1 cells; 1.0 mM in medium) | Effect on GLP-1 secretion from STC-1 cells (in words) (STC-1 cells) | Relative GLP-1 (plasma GLP-1 concentration relative to before administration = 1) (GPR84 knockout mice)
1 | CCCCCCCCCC(=O)O [Capric acid, capric acid (n-decanoic acid)] | 1.235 ± 0.120 nM | 1.517 ± 0.005 nM | 4.629 ± 0.087 * nM | promoted GLP-1 secretion | 0.63 ± 0.2
2 | CCCCCCCCCCCC(=O)O [Lauric acid, lauric acid] | 1.827 ± 0.060 * nM | 3.915 ± 0.197 * nM | 4.268 ± 0.084 * nM | promoted GLP-1 secretion | 0.68 ± 0.19
